Source: patent US8722665B2, “Cinnamido-pyrrolo[2,1-C][1,4]benzodiazepines as potential anticancer agents and process for the preparation thereof” (Council of Scientific & Industrial Research, priority 2008, dated 2014)

Experiments:
Assay in all cases: In vitro cytotoxicity (SRB)
Type in all cases: cell-based, human
DU-145 = DU-145 (Prostate); 48 h continuous drug exposure
Method: (§1) The compounds were evaluated for in vitro anticancer activity against sixty human tumour cells derived from nine cancer types (leukemia, non-small-cell lung, colon, CNS, melanoma, ovarian, prostate, and breast cancer) as shown in Table 1a. For each compound, dose response curves for each cell line were measured at a minimum of five concentrations at 10 fold dilutions. A protocol of 48 h continuous drug exposure was used and a sulforhodamine B (SRB) protein assay was used to estimate cell viability or growth. The concentration causing 50% cell growth inhibition (GI50), total cell growth inhibition (TGI 0% growth) and 50% cell death (LC50, −50% growth) compared with the control was calculated. The Log10 GI50 (concentration in mol/L causing 50% growth inhibition) values for Cinnamido-pyrrolo[2,1-c][1,4]benzodiazepine (8b) is listed in Table 2.

T-47D = T-47D (Breast); 48 h continuous drug exposure
Method: as §1

RXF 393 = RXF 393 (Renal); 48 h continuous drug exposure
Method: as §1

HS 578T = HS 578T (Breast); 48 h continuous drug exposure
Method: as §1

M14 = M14 (Melanoma); 48 h continuous drug exposure
Method: as §1

OVCAR-4 = OVCAR-4 (Ovarian); 48 h continuous drug exposure
Method: as §1

MDA-MB-231/ATCC = MDA-MB-231/ATCC (Breast); 48 h continuous drug exposure
Method: as §1

ACHN = ACHN (Renal); 48 h continuous drug exposure
Method: as §1

MALME-3M = MALME-3M (Melanoma); 48 h continuous drug exposure
Method: as §1

RPMI-8226 = RPMI-8226 (Leukemia); 48 h continuous drug exposure
Method: as §1

TK-10 = TK-10 (Renal); 48 h continuous drug exposure
Method: as §1

OVCAR-8 = OVCAR-8 (Ovarian); 48 h continuous drug exposure
Method: as §1

HL-60(TB) = HL-60(TB) (Leukemia); 48 h continuous drug exposure
Method: as §1

SR = SR (Leukemia); 48 h continuous drug exposure
Method: as §1

SNB-75 = SNB-75 (CNS); 48 h continuous drug exposure
Method: as §1

NCI-H23 = NCI-H23 (Non-small cell lung); 48 h continuous drug exposure
Method: as §1

SF-268 = SF-268 (CNS); 48 h continuous drug exposure
Method: as §1

IGROV1 = IGROV1 (Ovarian); 48 h continuous drug exposure
Method: as §1

NCI/ADR-RES = NCI/ADR-RES (Breast); 48 h continuous drug exposure
Method: as §1

MOLT-4 = MOLT-4 (Leukemia); 48 h continuous drug exposure
Method: as §1

HCC-2998 = HCC-2998 (Colon); 48 h continuous drug exposure
Method: as §1

BT-549 = BT-549 (Breast); 48 h continuous drug exposure
Method: as §1

HCT-15 = HCT-15 (Colon); 48 h continuous drug exposure
Method: as §1

786-0 = 786-0 (Renal); 48 h continuous drug exposure
Method: as §1

HCT-116 = HCT-116 (Colon); 48 h continuous drug exposure
Method: as §1

SF-539 = SF-539 (CNS); 48 h continuous drug exposure
Method: as §1

A498 = A498 (Renal); 48 h continuous drug exposure
Method: as §1

U251 = U251 (CNS); 48 h continuous drug exposure
Method: as §1

K-562 = K-562 (Leukemia); 48 h continuous drug exposure
Method: as §1

SN12C = SN12C (Renal); 48 h continuous drug exposure
Method: as §1

SK-OV-3 = SK-OV-3 (Ovarian); 48 h continuous drug exposure
Method: as §1

SW-620 = SW-620 (Colon); 48 h continuous drug exposure
Method: as §1

MCF7 = MCF7 (Breast); 48 h continuous drug exposure
Method: as §1

A549/ATCC = A549/ATCC (Non-small cell lung); 48 h continuous drug exposure
Method: as §1

UACC-62 = UACC-62 (Melanoma); 48 h continuous drug exposure
Method: as §1

**Q.** Which GI50 (DU-145) does the source give for COc1cc(/C=C/C(=O)N2CCN(C(=O)c3cc(OC)c(OC)c(OC)c3)CC2)ccc1OCCCOc1cc2c(cc1OC)C(=O)N1CCC[C@H]1C=N2 [8b, 7-methoxy-8-{3-(2-methoxy-4-(E)-3-oxo-3-[4-(3,4,5-trimethoxybenzoyl)piperazino]-1-propenylphenoxy)propoxy}-(11aS)-2,3,5,11^a-tetrahydro-5H-pyrrolo[2,1-c][1,4]benzo-diazepine-5-one] here?
**A.** 0.36 µM

**Q.** What about the GI50 (T-47D) of the same compound?
**A.** 0.15 µM

**Q.** And the GI50 (RXF 393)?
**A.** 0.2 µM

**Q.** And the GI50 (HS 578T)?
**A.** 0.31 µM

**Q.** And the GI50 (M14)?
**A.** 0.37 µM

**Q.** What about the GI50 (OVCAR-4) of the same compound?
**A.** 2.2 µM

**Q.** And the GI50 (MDA-MB-231/ATCC)?
**A.** 0.23 µM

**Q.** And the GI50 (ACHN)?
**A.** 2.75 µM

**Q.** And the GI50 (MALME-3M)?
**A.** 0.2 µM

**Q.** What about the GI50 (RPMI-8226) of the same compound?
**A.** 0.65 µM

**Q.** And the GI50 (TK-10)?
**A.** 0.69 µM

**Q.** And the GI50 (OVCAR-8)?
**A.** 0.26 µM

**Q.** And the GI50 (HL-60(TB))?
**A.** 0.25 µM

**Q.** And the GI50 (SR)?
**A.** 0.02 µM

**Q.** And the GI50 (SNB-75)?
**A.** 0.26 µM

**Q.** And the GI50 (NCI-H23)?
**A.** 0.32 µM

**Q.** What about the GI50 (SF-268) of the same compound?
**A.** 0.32 µM

**Q.** And the GI50 (IGROV1)?
**A.** 0.27 µM

**Q.** What about the GI50 (NCI/ADR-RES) of the same compound?
**A.** 1.47 µM

**Q.** What about the GI50 (MOLT-4) of the same compound?
**A.** 0.2 µM

**Q.** What about the GI50 (HCC-2998) of the same compound?
**A.** 0.36 µM

**Q.** What about the GI50 (BT-549) of the same compound?
**A.** 0.13 µM

**Q.** And the GI50 (HCT-15)?
**A.** 3.39 µM

**Q.** What about the GI50 (786-0) of the same compound?
**A.** 0.49 µM

**Q.** And the GI50 (HCT-116)?
**A.** 0.2 µM

**Q.** And the GI50 (SF-539)?
**A.** 0.25 µM

**Q.** What about the GI50 (A498) of the same compound?
**A.** 0.21 µM

**Q.** What about the GI50 (U251) of the same compound?
**A.** 0.27 µM

**Q.** And the GI50 (K-562)?
**A.** 0.15 µM

**Q.** What about the GI50 (SN12C) of the same compound?
**A.** 0.33 µM

**Q.** And the GI50 (SK-OV-3)?
**A.** 0.49 µM

**Q.** What about the GI50 (SW-620) of the same compound?
**A.** 0.19 µM

**Q.** What about the GI50 (MCF7) of the same compound?
**A.** 0.13 µM

**Q.** And the GI50 (A549/ATCC)?
**A.** 0.48 µM

**Q.** What about the GI50 (UACC-62) of the same compound?
**A.** 0.17 µM
